Tests used:
[1] = Cytotoxicity against human CCD-986Sk cells assessed as cell viability incubated for 48 hrs by MTT assay; type: toxicity, cell-based
[2] = system: COLO 205; test: Cytotoxicity against human COLO 205 cells assessed as cell viability incubated for 48 hrs by MTT assay; type: functional, cell-based; conditions: COLO 205, 48 h
[3] = system: HT-29; test: Cytotoxicity against human HT-29 cells assessed as cell viability incubated for 48 hrs by MTT assay; type: functional, cell-based; conditions: HT-29, 48 h
[4] = system: DLD-1; test: Cytotoxicity against human DLD-1 cells assessed as cell viability incubated for 48 hrs by MTT assay; type: functional, cell-based; conditions: DLD-1, 48 h
[5] = system: DLD-1; test: Induction of apoptosis in human DLD-1 cells assessed as viable cells at 10 uM incubated for 48 hrs by Annexin V staining based flow cytometry (reference value: 81.96 %); type: functional; conditions: read-out: Activity
[6] = system: DLD-1; test: Induction of apoptosis in human DLD-1 cells assessed as necrotic cells at 10 uM incubated for 48 hrs by Annexin V staining based flow cytometry (reference value: 5.12 %); type: functional
[7] = system: DLD-1; test: Induction of apoptosis in human DLD-1 cells assessed as late apoptotic cells at 10 uM incubated for 48 hrs by Annexin V staining based flow cytometry (reference value: 6.19 %); type: functional
[8] = system: DLD-1; test: Induction of apoptosis in human DLD-1 cells assessed as early apoptotic cells at 10 uM incubated for 48 hrs by Annexin V staining based flow cytometry (reference value: 6.73 %); type: functional
[9] = system: DLD-1; test: Induction of apoptosis in human DLD-1 cells assessed as necrotic cells at 5 uM incubated for 48 hrs by Annexin V staining based flow cytometry (reference value: 5.12 %); type: functional
[10] = system: DLD-1; test: Induction of apoptosis in human DLD-1 cells assessed as early apoptotic cells at 5 uM incubated for 48 hrs by Annexin V staining based flow cytometry (reference value: 6.73 %); type: functional
[11] = system: DLD-1; test: Induction of apoptosis in human DLD-1 cells assessed as viable cells at 5 uM incubated for 48 hrs by Annexin V staining based flow cytometry (reference value: 81.96 %); type: functional; conditions: read-out: Activity
[12] = system: DLD-1; test: Induction of apoptosis in human DLD-1 cells assessed as late apoptotic cells at 5 uM incubated for 48 hrs by Annexin V staining based flow cytometry (reference value: 6.19 %); type: functional

Structure (SMILES): NS(=O)(=O)c1ccc(-n2cc(COc3ccc(C(=O)c4ccccc4)cc3)nn2)cc1
- IC50 at 48 h [1]: 15.2 µM
- IC50 [2]: > 200 µM
- IC50 [3]: 20.6 µM
- IC50 [4]: 19 µM

Structure (SMILES): Cc1ccc(OCc2cn(-c3ccc(S(N)(=O)=O)cc3)nn2)c([N+](=O)[O-])c1
- IC50 at 48 h [1]: 25.9 µM
- IC50 [2]: 165 µM
- IC50 [3]: 62.8 µM
- IC50 [4]: 13 µM

Structure (SMILES): CCN(CC)c1ccc(C=O)c(OCc2cn(-c3ccc(S(N)(=O)=O)cc3)nn2)c1
- IC50 at 48 h [1]: 185 µM
- IC50 [2]: 148 µM
- IC50 [3]: 41.9 µM
- IC50 [4]: 53.4 µM

Structure (SMILES): NS(=O)(=O)c1ccc(-n2cc(COc3ccc([N+](=O)[O-])cc3C=O)nn2)cc1
- IC50 at 48 h [1]: > 200 µM
- viability at 10 µM [5]: 55%
- Activity [6]: 2.85%
- IC50 [2]: 132 µM
- Activity [7]: 8.59%
- IC50 [3]: 9.35 µM
- IC50 [4]: 11.8 µM
- Activity [8]: 33.56%

Structure (SMILES): NS(=O)(=O)c1ccc(-n2cc(COc3ccccc3C=O)nn2)cc1
- IC50 at 48 h [1]: 96.3 µM
- IC50 [2]: 147 µM
- IC50 [3]: 65 µM
- IC50 [4]: 52.1 µM

Structure (SMILES): NS(=O)(=O)c1ccc(-n2cc(COc3ccc(Br)cc3C=O)nn2)cc1
- IC50 at 48 h [1]: > 200 µM
- IC50 [2]: > 200 µM
- IC50 [3]: > 200 µM
- IC50 [4]: 51.1 µM

Structure (SMILES): NS(=O)(=O)c1ccc(-n2cc(COc3ccc(Cl)cc3Cl)nn2)cc1
- IC50 at 48 h [1]: 78.2 µM
- IC50 [2]: 172 µM
- IC50 [3]: 63.6 µM
- IC50 [4]: 24.9 µM

Structure (SMILES): Cc1ccc(C(C)C)cc1OCc1cn(-c2ccc(S(N)(=O)=O)cc2)nn1
- IC50 at 48 h [1]: 12.8 µM
- IC50 [2]: > 200 µM
- IC50 [3]: 35.9 µM
- IC50 [4]: 16.6 µM

Structure (SMILES): NS(=O)(=O)c1ccc(-n2cc(COc3ccc([N+](=O)[O-])cc3)nn2)cc1
- IC50 at 48 h [1]: 69.8 µM
- IC50 [2]: 124 µM
- IC50 [3]: 78 µM
- IC50 [4]: 76.8 µM

Structure (SMILES): C=CCc1ccc(OCc2cn(-c3ccc(S(N)(=O)=O)cc3)nn2)c(OC)c1
- IC50 at 48 h [1]: 134 µM
- IC50 [2]: > 200 µM
- IC50 [3]: 75.3 µM
- IC50 [4]: 49.8 µM

Structure (SMILES): CC(=O)c1ccccc1OCc1cn(-c2ccc(S(N)(=O)=O)cc2)nn1
- IC50 at 48 h [1]: 139 µM
- IC50 [2]: 160 µM
- IC50 [3]: 80 µM
- IC50 [4]: 51 µM

Structure (SMILES): CC(=O)c1cccc(OCc2cn(-c3ccc(S(N)(=O)=O)cc3)nn2)c1
- IC50 at 48 h [1]: > 200 µM
- IC50 [2]: 81.3 µM
- IC50 [3]: 128 µM
- IC50 [4]: 79.2 µM

Structure (SMILES): NS(=O)(=O)c1ccc(-n2cc(COc3ccc(C=O)cc3)nn2)cc1
- IC50 at 48 h [1]: > 200 µM
- IC50 [2]: 75.1 µM
- IC50 [3]: > 200 µM
- IC50 [4]: 164 µM

Structure (SMILES): NS(=O)(=O)c1ccc(-n2cc(COc3cccc(C=O)c3)nn2)cc1
- IC50 at 48 h [1]: > 200 µM
- IC50 [2]: 40.9 µM
- IC50 [3]: > 200 µM
- IC50 [4]: 122 µM

Structure (SMILES): NS(=O)(=O)c1ccc(-n2cc(COc3ccc4ccccc4c3C=O)nn2)cc1
- IC50 at 48 h [1]: > 200 µM
- IC50 [2]: > 200 µM
- IC50 [3]: > 200 µM
- IC50 [4]: 153 µM

Structure (SMILES): CC(=O)c1ccc(OCc2cn(-c3ccc(S(N)(=O)=O)cc3)nn2)cc1
- IC50 at 48 h [1]: > 200 µM
- IC50 [2]: > 200 µM
- IC50 [3]: > 200 µM
- IC50 [4]: 123 µM

Structure (SMILES): CC(=O)c1cc(Cl)ccc1OCc1cn(-c2ccc(S(N)(=O)=O)cc2)nn1
- IC50 at 48 h [1]: 51.3 µM
- IC50 [2]: > 200 µM
- IC50 [3]: 187 µM
- IC50 [4]: 15.9 µM

Structure (SMILES): COc1cccc(C=O)c1OCc1cn(-c2ccc(S(N)(=O)=O)cc2)nn1
- IC50 at 48 h [1]: > 200 µM
- IC50 [2]: > 200 µM
- IC50 [3]: > 200 µM
- IC50 [4]: 180 µM

Structure (SMILES): Cc1ccc(C(C)C)c(OCc2cn(-c3ccc(S(N)(=O)=O)cc3)nn2)c1
- IC50 at 48 h [1]: 13.1 µM
- IC50 [2]: > 200 µM
- IC50 [3]: 33.2 µM
- IC50 [4]: 35 µM

Structure (SMILES): O=c1[nH]cc(F)c(=O)[nH]1 [FLUOROURACIL]
- IC50 at 48 h [1]: 7.98 µM
- Activity [9]: 3.73%
- Activity [10]: 25.5%
- viability at 5 µM [11]: 60.9%
- IC50 [2]: 90.1 µM
- IC50 [3]: 4.51 µM
- Activity [12]: 9.91%
- IC50 [4]: 5.75 µM

Reference: ChEMBL document CHEMBL6114957, “Exploring anticancer properties of new triazole-linked benzenesulfonamide derivatives against colorectal carcinoma: Synthesis, cytotoxicity, and in silico insights” (Bioorg Med Chem, 2025)
